# Reference: the supplement of paper PMC11368000
# Assays:
# Details in all cases: exposure time: 90 min
# 1368 = donor line of iPSC-derived cardiomyocytes; assay: POD (EC05) for increase in beat frequency (positive chronotrope) vs vehicle; higher = less potent (higher point of departure)
# Protocol: (§1)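 Human iPSC-derived cardiomyocytes from 16 donors were exposed for 90 min at 37 °C to each PFAS at 0.1, 1, 10 and 100 µM in 0.5% DMSO, 384-well plates. Kinetic Ca2+ flux (FLIPR) and Hoechst nuclei counts were normalised to vehicle wells and fitted with a hierarchical Bayesian Hill model to give donor-specific PODs: EC05 for beat-rate increase or decrease and for decay-to-rise ratio increase (QT proxy), EC95 for peak-frequency loss (asystole), EC10 for total cell number loss. 0.03 µM is the lower bound.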
# 1392 [1] = donor line of iPSC-derived cardiomyocytes; assay: as above
# Protocol: as §1
# 1434 = donor line of iPSC-derived cardiomyocytes; assay: as above
# Protocol: as §1
# 1516 [2] = donor line of iPSC-derived cardiomyocytes; assay: as above
# Protocol: as §1
# 11235 = donor line of iPSC-derived cardiomyocytes; assay: as above
# Protocol: as §1
# 1535 [3] = donor line of iPSC-derived cardiomyocytes; assay: as above
# Protocol: as §1
# 30171 = donor line of iPSC-derived cardiomyocytes; assay: as above
# Protocol: as §1
# 1531 = donor line of iPSC-derived cardiomyocytes; assay: as above
# Protocol: as §1
# 1565 [4] = donor line of iPSC-derived cardiomyocytes; assay: as above
# Protocol: as §1
# 1118 = donor line of iPSC-derived cardiomyocytes; assay: as above
# Protocol: as §1
# 20032 = donor line of iPSC-derived cardiomyocytes; assay: as above
# Protocol: as §1
# 1309 = donor line of iPSC-derived cardiomyocytes; assay: as above
# Protocol: as §1
# 20084 = donor line of iPSC-derived cardiomyocytes; assay: as above
# Protocol: as §1
# 1518 [5] = donor line of iPSC-derived cardiomyocytes; assay: as above
# Protocol: as §1
# 1083 = donor line of iPSC-derived cardiomyocytes; assay: as above
# Protocol: as §1
# 1392 [6] = assay: POD (EC05) for decrease in beat frequency (negative chronotrope) vs vehicle; higher = less potent (higher point of departure)
# Protocol: as §1
# 1516 [7] = assay: as above
# Protocol: as §1
# 1535 [8] = assay: as above
# Protocol: as §1
# 1565 [9] = assay: as above
# Protocol: as §1
# 1518 [10] = assay: as above
# Protocol: as §1
compound,measurement,setting,value
"O=C(O)C(F)(F)OC(F)(F)C(F)(F)OC(F)(F)F [Perfluoro-3,6-dioxaheptanoic_acid]",POD vs vehicle,1368,> 100 µM
same,POD vs vehicle,1392 [1],> 100 µM
same,POD vs vehicle,1434,> 100 µM
same,POD vs vehicle,1516 [2],> 100 µM
same,POD vs vehicle,11235,> 100 µM
same,POD vs vehicle,1535 [3],> 100 µM
same,POD vs vehicle,30171,> 100 µM
same,POD vs vehicle,1531,> 100 µM
same,POD vs vehicle,1565 [4],> 100 µM
same,POD vs vehicle,1118,> 100 µM
same,POD vs vehicle,20032,> 100 µM
same,POD vs vehicle,1309,> 100 µM
same,POD vs vehicle,20084,> 100 µM
same,POD vs vehicle,1518 [5],> 100 µM
same,POD vs vehicle,1083,> 100 µM
same,POD vs vehicle,1392 [6],> 100 µM
same,POD vs vehicle,1516 [7],> 100 µM
same,POD vs vehicle,1535 [8],> 100 µM
same,POD vs vehicle,1565 [9],> 100 µM
same,POD vs vehicle,1518 [10],> 100 µM
O=S(=O)(O)CCC(F)(F)C(F)(F)C(F)(F)C(F)(F)C(F)(F)C(F)(F)F [6:2 Fluorotelomer sulfonic acid],POD vs vehicle,1368,> 100 µM
same,POD vs vehicle,1392 [1],> 100 µM
same,POD vs vehicle,1434,> 100 µM
same,POD vs vehicle,1516 [2],> 100 µM
same,POD vs vehicle,11235,> 100 µM
same,POD vs vehicle,1535 [3],> 100 µM
same,POD vs vehicle,30171,> 100 µM
same,POD vs vehicle,1531,> 100 µM
same,POD vs vehicle,1565 [4],> 100 µM
same,POD vs vehicle,1118,> 100 µM
same,POD vs vehicle,20032,> 100 µM
same,POD vs vehicle,1309,> 100 µM
same,POD vs vehicle,20084,> 100 µM
same,POD vs vehicle,1518 [5],> 100 µM
same,POD vs vehicle,1083,> 100 µM
same,POD vs vehicle,1392 [6],> 100 µM
same,POD vs vehicle,1516 [7],33.5 µM
same,POD vs vehicle,1535 [8],> 100 µM
same,POD vs vehicle,1565 [9],39.6 µM
same,POD vs vehicle,1518 [10],42.6 µM
O=C(O)C=CC(F)(C(F)(F)F)C(F)(F)F [3-(Perfluoroisopropyl)-2-propenoic_acid],POD vs vehicle,1368,> 100 µM
same,POD vs vehicle,1392 [1],> 100 µM
same,POD vs vehicle,1434,> 100 µM
same,POD vs vehicle,1516 [2],> 100 µM
same,POD vs vehicle,11235,> 100 µM
same,POD vs vehicle,1535 [3],> 100 µM
same,POD vs vehicle,30171,> 100 µM
same,POD vs vehicle,1531,> 100 µM
same,POD vs vehicle,1565 [4],> 100 µM
same,POD vs vehicle,1118,> 100 µM
same,POD vs vehicle,20032,> 100 µM
same,POD vs vehicle,1309,> 100 µM
same,POD vs vehicle,20084,> 100 µM
same,POD vs vehicle,1518 [5],> 100 µM
same,POD vs vehicle,1083,> 100 µM
same,POD vs vehicle,1392 [6],> 100 µM
same,POD vs vehicle,1516 [7],> 100 µM
same,POD vs vehicle,1535 [8],> 100 µM
same,POD vs vehicle,1565 [9],> 100 µM
same,POD vs vehicle,1518 [10],> 100 µM
NS(=O)(=O)C(F)(F)C(F)(F)C(F)(F)C(F)(F)C(F)(F)C(F)(F)F [Perfluorohexanesulfonamide],POD vs vehicle,1368,> 100 µM
same,POD vs vehicle,1392 [1],> 100 µM
same,POD vs vehicle,1434,> 100 µM
same,POD vs vehicle,1516 [2],> 100 µM
same,POD vs vehicle,11235,> 100 µM
same,POD vs vehicle,1535 [3],> 100 µM
same,POD vs vehicle,30171,> 100 µM
same,POD vs vehicle,1531,> 100 µM
same,POD vs vehicle,1565 [4],> 100 µM
same,POD vs vehicle,1118,> 100 µM
same,POD vs vehicle,20032,> 100 µM
same,POD vs vehicle,1309,> 100 µM
same,POD vs vehicle,20084,> 100 µM
same,POD vs vehicle,1518 [5],> 100 µM
same,POD vs vehicle,1083,> 100 µM
same,POD vs vehicle,1392 [6],91.8 µM
same,POD vs vehicle,1516 [7],14.3 µM
same,POD vs vehicle,1535 [8],12.6 µM
same,POD vs vehicle,1565 [9],92 µM
same,POD vs vehicle,1518 [10],32.8 µM
O=C(O)C(F)(F)C(F)(F)C(F)(F)C(F)(F)C(F)(F)C(F)(F)C(F)(F)C(F)(F)F [Perfluorononanoic_acid],POD vs vehicle,1368,> 100 µM
same,POD vs vehicle,1392 [1],> 100 µM
same,POD vs vehicle,1434,> 100 µM
same,POD vs vehicle,1516 [2],> 100 µM
same,POD vs vehicle,11235,> 100 µM
same,POD vs vehicle,1535 [3],> 100 µM
same,POD vs vehicle,30171,> 100 µM
same,POD vs vehicle,1531,> 100 µM
same,POD vs vehicle,1565 [4],> 100 µM
same,POD vs vehicle,1118,> 100 µM
same,POD vs vehicle,20032,> 100 µM
same,POD vs vehicle,1309,> 100 µM
same,POD vs vehicle,20084,> 100 µM
same,POD vs vehicle,1518 [5],> 100 µM
same,POD vs vehicle,1083,> 100 µM
same,POD vs vehicle,1392 [6],> 100 µM
same,POD vs vehicle,1516 [7],20.4 µM
same,POD vs vehicle,1535 [8],31.8 µM
same,POD vs vehicle,1565 [9],> 100 µM
same,POD vs vehicle,1518 [10],51.1 µM
COC(=O)C(F)(F)C(F)(F)OC(F)(C(F)(F)F)C(F)(F)OC(F)=C(F)F (stereo not given) [Methyl_perfluoro(3-(1-ethenyloxypropan-2-yloxy)propanoate)],POD vs vehicle,1368,> 100 µM
same,POD vs vehicle,1392 [1],> 100 µM
same,POD vs vehicle,1434,> 100 µM
same,POD vs vehicle,1516 [2],> 100 µM
same,POD vs vehicle,11235,> 100 µM
same,POD vs vehicle,1535 [3],> 100 µM
same,POD vs vehicle,30171,> 100 µM
same,POD vs vehicle,1531,> 100 µM
same,POD vs vehicle,1565 [4],> 100 µM
same,POD vs vehicle,1118,> 100 µM
same,POD vs vehicle,20032,> 100 µM
same,POD vs vehicle,1309,> 100 µM
same,POD vs vehicle,20084,> 100 µM
same,POD vs vehicle,1518 [5],> 100 µM
same,POD vs vehicle,1083,> 100 µM
same,POD vs vehicle,1392 [6],> 100 µM
same,POD vs vehicle,1516 [7],> 100 µM
same,POD vs vehicle,1535 [8],> 100 µM
same,POD vs vehicle,1565 [9],> 100 µM
same,POD vs vehicle,1518 [10],> 100 µM
"O=C(O)C=C(C(F)(F)F)C(F)(F)F [3,3-Bis(trifluoromethyl)-2-propenoic_acid]",POD vs vehicle,1368,> 100 µM
same,POD vs vehicle,1392 [1],> 100 µM
same,POD vs vehicle,1434,> 100 µM
same,POD vs vehicle,1516 [2],> 100 µM
same,POD vs vehicle,11235,> 100 µM
same,POD vs vehicle,1535 [3],> 100 µM
same,POD vs vehicle,30171,> 100 µM
same,POD vs vehicle,1531,> 100 µM
same,POD vs vehicle,1565 [4],> 100 µM
same,POD vs vehicle,1118,> 100 µM
same,POD vs vehicle,20032,> 100 µM
same,POD vs vehicle,1309,> 100 µM
same,POD vs vehicle,20084,> 100 µM
same,POD vs vehicle,1518 [5],> 100 µM
same,POD vs vehicle,1083,> 100 µM
same,POD vs vehicle,1392 [6],> 100 µM
same,POD vs vehicle,1516 [7],> 100 µM
same,POD vs vehicle,1535 [8],> 100 µM
same,POD vs vehicle,1565 [9],> 100 µM
same,POD vs vehicle,1518 [10],> 100 µM
OCC(F)(F)C(F)(F)C(F)(F)C(F)(F)C(F)(F)C(F)F [Dodecafluoroheptanol],POD vs vehicle,1368,> 100 µM
same,POD vs vehicle,1392 [1],> 100 µM
same,POD vs vehicle,1434,> 100 µM
same,POD vs vehicle,1516 [2],> 100 µM
same,POD vs vehicle,11235,> 100 µM
same,POD vs vehicle,1535 [3],> 100 µM
same,POD vs vehicle,30171,> 100 µM
same,POD vs vehicle,1531,> 100 µM
same,POD vs vehicle,1565 [4],> 100 µM
same,POD vs vehicle,1118,> 100 µM
same,POD vs vehicle,20032,> 100 µM
same,POD vs vehicle,1309,> 100 µM
same,POD vs vehicle,20084,> 100 µM
same,POD vs vehicle,1518 [5],> 100 µM
same,POD vs vehicle,1083,> 100 µM
same,POD vs vehicle,1392 [6],18 µM
same,POD vs vehicle,1516 [7],18.9 µM
same,POD vs vehicle,1535 [8],18.4 µM
same,POD vs vehicle,1565 [9],20.3 µM
same,POD vs vehicle,1518 [10],14.9 µM
O=S(=O)(O)C(F)(F)C(F)(F)C(F)(F)C(F)(F)C(F)(F)C(F)(F)C(F)(F)C(F)(F)F [Perfluorooctanesulfonic_acid],POD vs vehicle,1368,> 100 µM
same,POD vs vehicle,1392 [1],> 100 µM
same,POD vs vehicle,1434,> 100 µM
same,POD vs vehicle,1516 [2],> 100 µM
same,POD vs vehicle,11235,> 100 µM
same,POD vs vehicle,1535 [3],> 100 µM
same,POD vs vehicle,30171,> 100 µM
same,POD vs vehicle,1531,> 100 µM
same,POD vs vehicle,1565 [4],> 100 µM
same,POD vs vehicle,1118,> 100 µM
same,POD vs vehicle,20032,> 100 µM
same,POD vs vehicle,1309,> 100 µM
same,POD vs vehicle,20084,> 100 µM
same,POD vs vehicle,1518 [5],> 100 µM
same,POD vs vehicle,1083,> 100 µM
same,POD vs vehicle,1392 [6],> 100 µM
same,POD vs vehicle,1516 [7],20.4 µM
same,POD vs vehicle,1535 [8],> 100 µM
same,POD vs vehicle,1565 [9],> 100 µM
same,POD vs vehicle,1518 [10],> 100 µM
O=C(O)C(F)(F)C(F)(F)OC(F)(F)F [Perfluoro-3-methoxypropanoic_acid],POD vs vehicle,1368,> 100 µM
same,POD vs vehicle,1392 [1],> 100 µM
same,POD vs vehicle,1434,> 100 µM
same,POD vs vehicle,1516 [2],> 100 µM
same,POD vs vehicle,11235,> 100 µM
same,POD vs vehicle,1535 [3],> 100 µM
same,POD vs vehicle,30171,> 100 µM
same,POD vs vehicle,1531,> 100 µM
same,POD vs vehicle,1565 [4],> 100 µM
same,POD vs vehicle,1118,> 100 µM
same,POD vs vehicle,20032,> 100 µM
same,POD vs vehicle,1309,> 100 µM
same,POD vs vehicle,20084,> 100 µM
same,POD vs vehicle,1518 [5],> 100 µM
same,POD vs vehicle,1083,> 100 µM
same,POD vs vehicle,1392 [6],> 100 µM
same,POD vs vehicle,1516 [7],> 100 µM
same,POD vs vehicle,1535 [8],> 100 µM
same,POD vs vehicle,1565 [9],> 100 µM
same,POD vs vehicle,1518 [10],> 100 µM
